Assay results from ChEMBL document CHEMBL1157739, “5'-O-dephosphorylated 2',5'-oligoadenylate (2-5A) with 8-methyladenosine at the 2'-terminus activates human RNase L” (Bioorg Med Chem Lett, 2010).
Calls of active or inactive are those of the source. The rule behind the calls is not given here.

Assays:
[1] = molecular target: T1, 2-5A-dependent ribonuclease (Homo sapiens, UniProt Q05823); assay: […] of human RNaseL ANK domain expressed in Escherichia coli assessed as 5' flurescein-r(C11U2C7)-3' RNA cleavage
T1 sequence (Q05823 whole entry): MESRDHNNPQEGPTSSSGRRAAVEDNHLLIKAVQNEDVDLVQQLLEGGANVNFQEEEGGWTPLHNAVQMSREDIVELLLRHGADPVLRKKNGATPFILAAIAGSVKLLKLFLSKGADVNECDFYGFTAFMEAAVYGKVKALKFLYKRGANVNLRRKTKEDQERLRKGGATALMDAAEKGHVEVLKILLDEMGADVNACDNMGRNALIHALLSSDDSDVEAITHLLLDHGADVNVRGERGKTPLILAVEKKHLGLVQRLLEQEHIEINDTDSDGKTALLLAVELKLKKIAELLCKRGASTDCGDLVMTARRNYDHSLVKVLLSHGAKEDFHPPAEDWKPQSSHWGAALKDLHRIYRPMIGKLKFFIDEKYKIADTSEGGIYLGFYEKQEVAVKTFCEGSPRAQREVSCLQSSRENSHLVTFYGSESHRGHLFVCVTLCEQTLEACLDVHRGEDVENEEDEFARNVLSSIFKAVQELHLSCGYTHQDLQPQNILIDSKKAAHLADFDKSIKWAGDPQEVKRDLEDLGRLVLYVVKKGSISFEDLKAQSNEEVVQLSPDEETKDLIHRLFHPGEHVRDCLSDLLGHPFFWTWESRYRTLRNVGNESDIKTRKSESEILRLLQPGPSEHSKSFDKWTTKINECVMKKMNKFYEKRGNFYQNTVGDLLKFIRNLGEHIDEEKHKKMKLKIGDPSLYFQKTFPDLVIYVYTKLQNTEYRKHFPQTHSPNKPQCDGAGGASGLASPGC

[2] = molecular target: T2, 2-5A-dependent ribonuclease (Homo sapiens) (UniProt Q05823); assay: […] of human RNaseL ANK domain expressed in Escherichia col assessed as 5' flurescein-r(C11U2C7)-3' RNA cleavage relative to control; set-up: concentration or dose not given beside the values
T2 sequence (whole entry): T1 sequence (Q05823 whole entry)

[3] = Stability assessed as half life; assay type: physicochemical

Structure (SMILES)	EC50 [1]	Activity [2]	half-life [3] [min]	EC50 ([1]; read-out: EC50) [nM]
Nc1ncnc2c1ncn2[C@@H]1O[C@H](COP(=O)(O)O[C@@H]2[C@H](O)[C@@H](COP(=O)(O)O[C@@H]3[C@H](O)[C@@H](COP(=O)(O)O[C@@H]4[C@H](O)[C@@H](CO)O[C@H]4n4cnc5c(N)ncnc54)O[C@H]3n3cnc4c(N)ncnc43)O[C@H]2n2cnc3c(N)ncnc32)[C@@H](O)[C@H]1O	Not Active	inactive	18	–
Cc1nc2c(N)ncnc2n1[C@@H]1O[C@H](COP(=O)(O)O[C@@H]2[C@H](O)[C@@H](COP(=O)(O)O[C@@H]3[C@H](O)[C@@H](CO)O[C@H]3n3cnc4c(N)ncnc43)O[C@H]2n2cnc3c(N)ncnc32)[C@@H](O)[C@H]1O	–	< 0.19%	18	> 50
Cc1nc2c(N)ncnc2n1[C@@H]1O[C@H](COP(=O)(O)O[C@@H]2[C@H](O)[C@@H](COP(=O)(O)O[C@@H]3[C@H](O)[C@@H](CO)O[C@H]3n3cnc4c(N)ncnc43)O[C@H]2n2cnc3c(N)ncnc32)[C@@H](O)[C@H]1OP(=O)(O)OC[C@H]1O[C@@H](n2cnc3c(N)ncnc32)[C@H](O)[C@@H]1O	–	< 0.19%	18	> 50
Nc1ncnc2c1ncn2[C@@H]1O[C@H](COP(=O)(O)O[C@@H]2[C@H](O)[C@@H](COP(=O)(O)O[C@@H]3[C@H](O)[C@@H](COP(=O)(O)O[C@@H]4[C@H](O)[C@@H](COP(=O)(O)O)O[C@H]4n4cnc5c(N)ncnc54)O[C@H]3n3cnc4c(N)ncnc43)O[C@H]2n2cnc3c(N)ncnc32)[C@@H](O)[C@H]1O	–	1%	14	9.7
Cc1nc2c(N)ncnc2n1[C@@H]1O[C@H](COP(=O)(O)O[C@@H]2[C@H](O)[C@@H](COP(=O)(O)O[C@@H]3[C@H](O)[C@@H](COP(=O)(O)O[C@@H]4[C@H](O)[C@@H](COP(=O)(O)O)O[C@H]4n4cnc5c(N)ncnc54)O[C@H]3n3cnc4c(N)ncnc43)O[C@H]2n2cnc3c(N)ncnc32)[C@@H](O)[C@H]1O	–	3.9%	–	2.5
Cc1nc2c(N)ncnc2n1[C@@H]1O[C@H](COP(=O)(O)O[C@@H]2[C@H](O)[C@@H](COP(=O)(O)O[C@@H]3[C@H](O)[C@@H](COP(=O)(O)O[C@@H]4[C@H](O)[C@@H](CO)O[C@H]4n4cnc5c(N)ncnc54)O[C@H]3n3cnc4c(N)ncnc43)O[C@H]2n2cnc3c(N)ncnc32)[C@@H](O)[C@H]1O	–	3.9%	> 90	2.5
